Key:
[1] = target: Type-1 angiotensin II receptor (Oryctolagus cuniculus) (UniProt P34976); conditions: Homo sapiens; Compound concentration 10.0 uM
[2] = target: Sodium-dependent dopamine transporter (Homo sapiens) (UniProt Q01959); conditions: Compound concentration 10.0 uM
[3] = target: Platelet-activating factor receptor (Homo sapiens) (UniProt P25105); conditions: Compound concentration 10.0 uM
[4] = target: Nitric oxide synthase 3 (Rattus norvegicus) (UniProt Q62600); conditions: Compound concentration 10.0 uM
Chain of Nitric oxide synthase 3 (Rattus norvegicus) (Q62600 whole entry): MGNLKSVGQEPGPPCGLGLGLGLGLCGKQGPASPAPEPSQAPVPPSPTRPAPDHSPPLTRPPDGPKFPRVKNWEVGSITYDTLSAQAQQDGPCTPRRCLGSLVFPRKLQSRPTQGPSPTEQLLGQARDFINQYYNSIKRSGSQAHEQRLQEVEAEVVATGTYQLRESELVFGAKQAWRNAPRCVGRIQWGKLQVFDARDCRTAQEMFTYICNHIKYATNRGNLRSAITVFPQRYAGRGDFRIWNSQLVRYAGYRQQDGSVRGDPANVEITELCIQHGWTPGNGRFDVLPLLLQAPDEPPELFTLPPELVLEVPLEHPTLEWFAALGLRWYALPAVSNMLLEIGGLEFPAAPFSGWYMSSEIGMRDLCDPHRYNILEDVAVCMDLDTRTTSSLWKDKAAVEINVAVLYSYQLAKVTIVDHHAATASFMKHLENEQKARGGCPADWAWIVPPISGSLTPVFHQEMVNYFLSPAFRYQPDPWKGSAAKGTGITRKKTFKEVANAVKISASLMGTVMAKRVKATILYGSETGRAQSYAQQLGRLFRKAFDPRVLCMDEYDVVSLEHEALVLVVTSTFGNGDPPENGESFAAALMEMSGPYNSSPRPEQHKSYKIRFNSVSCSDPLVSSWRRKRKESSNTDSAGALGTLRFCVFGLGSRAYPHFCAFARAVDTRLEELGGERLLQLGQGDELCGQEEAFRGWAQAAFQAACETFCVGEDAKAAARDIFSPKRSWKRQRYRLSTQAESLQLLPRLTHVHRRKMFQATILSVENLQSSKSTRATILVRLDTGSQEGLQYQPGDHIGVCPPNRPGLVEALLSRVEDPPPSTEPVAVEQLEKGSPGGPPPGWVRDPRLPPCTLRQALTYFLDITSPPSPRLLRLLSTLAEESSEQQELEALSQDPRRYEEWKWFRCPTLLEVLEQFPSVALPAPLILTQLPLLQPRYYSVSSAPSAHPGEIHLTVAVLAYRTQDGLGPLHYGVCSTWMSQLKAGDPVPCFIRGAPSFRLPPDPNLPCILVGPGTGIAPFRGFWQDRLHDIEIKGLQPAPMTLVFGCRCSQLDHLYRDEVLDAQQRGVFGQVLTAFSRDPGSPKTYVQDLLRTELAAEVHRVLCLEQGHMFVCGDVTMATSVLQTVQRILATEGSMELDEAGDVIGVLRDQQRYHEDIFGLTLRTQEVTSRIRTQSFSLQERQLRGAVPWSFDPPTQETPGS

[5] = target: Alpha-1A adrenergic receptor (Homo sapiens) (UniProt P35348); conditions: Compound concentration 10.0 uM
Chain of Alpha-1A adrenergic receptor (Homo sapiens) (P35348 whole entry): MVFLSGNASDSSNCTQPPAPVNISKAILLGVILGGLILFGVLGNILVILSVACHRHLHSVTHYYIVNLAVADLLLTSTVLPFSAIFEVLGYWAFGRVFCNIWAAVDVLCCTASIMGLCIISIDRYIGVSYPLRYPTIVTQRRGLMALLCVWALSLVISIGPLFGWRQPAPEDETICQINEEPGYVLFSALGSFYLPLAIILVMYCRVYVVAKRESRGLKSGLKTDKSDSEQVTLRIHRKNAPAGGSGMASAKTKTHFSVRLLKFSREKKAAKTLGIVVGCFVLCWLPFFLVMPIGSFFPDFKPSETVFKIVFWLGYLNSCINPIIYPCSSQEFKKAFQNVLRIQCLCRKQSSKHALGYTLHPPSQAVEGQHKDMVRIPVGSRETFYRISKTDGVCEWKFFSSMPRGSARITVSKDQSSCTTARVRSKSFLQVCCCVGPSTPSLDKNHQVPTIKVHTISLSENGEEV

[6] = target: Nitric oxide synthase 3 (Bos taurus) (UniProt P29473); conditions: Compound concentration 10.0 uM
[7] = target: Adrenergic receptor alpha-1 (Rattus norvegicus) (UniProt P15823+P23944+P43140); conditions: Compound concentration 10.0 uM
[8] = target: ATP-sensitive inward rectifier potassium channel 1 isoform X1 (Mesocricetus auratus) (UniProt A0A1U8CU73); conditions: Compound concentration 10.0 uM
Chain of ATP-sensitive inward rectifier potassium channel 1 isoform X1 (Mesocricetus auratus) (A0A1U8CU73 as listed by the source): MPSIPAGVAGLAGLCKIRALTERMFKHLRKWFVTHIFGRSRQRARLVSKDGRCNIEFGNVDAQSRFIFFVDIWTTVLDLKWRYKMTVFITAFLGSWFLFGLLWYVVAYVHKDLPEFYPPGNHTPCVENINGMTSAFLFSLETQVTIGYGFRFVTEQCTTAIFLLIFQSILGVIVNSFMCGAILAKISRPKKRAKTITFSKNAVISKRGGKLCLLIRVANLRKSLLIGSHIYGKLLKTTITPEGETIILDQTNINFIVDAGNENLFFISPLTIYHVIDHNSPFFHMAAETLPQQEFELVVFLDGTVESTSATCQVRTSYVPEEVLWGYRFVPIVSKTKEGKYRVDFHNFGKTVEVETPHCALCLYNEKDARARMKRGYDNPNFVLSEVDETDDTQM

[9] = target: Opioid receptor (Rattus norvegicus) (UniProt P33533+P34975+P33535); conditions: Compound concentration 10.0 uM
[10] = target: Carbonic anhydrase 6 (Homo sapiens) (UniProt P23280); conditions: Compound concentration 10.0 uM
[11] = target: Sigma intracellular receptor 2 (Homo sapiens) (UniProt Q5BJF2); conditions: Compound concentration 10.0 uM
Chain of Sigma intracellular receptor 2 (Homo sapiens) (Q5BJF2 whole entry): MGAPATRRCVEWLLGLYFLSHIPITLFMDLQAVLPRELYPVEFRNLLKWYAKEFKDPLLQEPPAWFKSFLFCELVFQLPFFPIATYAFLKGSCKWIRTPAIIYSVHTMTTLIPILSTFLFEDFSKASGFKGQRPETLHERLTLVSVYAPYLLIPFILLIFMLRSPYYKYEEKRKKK

[12] = target: Cathepsin G (Homo sapiens) (UniProt P08311); conditions: Compound concentration 10.0 uM
[13] = target: Histamine H1 receptor (Homo sapiens) (UniProt P35367); conditions: Compound concentration 10.0 uM
[14] = target: Beta-2 adrenergic receptor (Rattus norvegicus) (UniProt P10608); conditions: Compound concentration 10.0 uM
[15] = target: T1, D(4) dopamine receptor (Homo sapiens) (UniProt P21917); conditions: Compound concentration 10.0 uM
T1 sequence (whole entry): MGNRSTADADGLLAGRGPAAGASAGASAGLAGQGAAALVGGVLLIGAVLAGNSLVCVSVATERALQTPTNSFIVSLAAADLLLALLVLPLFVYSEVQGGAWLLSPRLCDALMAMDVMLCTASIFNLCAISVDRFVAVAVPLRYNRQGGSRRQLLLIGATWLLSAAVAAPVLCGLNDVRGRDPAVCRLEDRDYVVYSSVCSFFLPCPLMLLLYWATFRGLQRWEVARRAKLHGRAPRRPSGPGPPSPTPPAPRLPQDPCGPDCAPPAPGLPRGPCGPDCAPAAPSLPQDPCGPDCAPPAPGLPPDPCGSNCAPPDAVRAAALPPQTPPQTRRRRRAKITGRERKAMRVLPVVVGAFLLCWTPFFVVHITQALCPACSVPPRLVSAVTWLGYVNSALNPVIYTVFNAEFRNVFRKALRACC

[16] = target: Adrenergic receptor alpha-2 (Rattus norvegicus) (UniProt P22086+P19328+P22909); conditions: Compound concentration 10.0 uM
[17] = target: T2, 5-hydroxytryptamine receptor 3A (Homo sapiens) (UniProt P46098); conditions: Compound concentration 10.0 uM
T2 sequence (whole entry): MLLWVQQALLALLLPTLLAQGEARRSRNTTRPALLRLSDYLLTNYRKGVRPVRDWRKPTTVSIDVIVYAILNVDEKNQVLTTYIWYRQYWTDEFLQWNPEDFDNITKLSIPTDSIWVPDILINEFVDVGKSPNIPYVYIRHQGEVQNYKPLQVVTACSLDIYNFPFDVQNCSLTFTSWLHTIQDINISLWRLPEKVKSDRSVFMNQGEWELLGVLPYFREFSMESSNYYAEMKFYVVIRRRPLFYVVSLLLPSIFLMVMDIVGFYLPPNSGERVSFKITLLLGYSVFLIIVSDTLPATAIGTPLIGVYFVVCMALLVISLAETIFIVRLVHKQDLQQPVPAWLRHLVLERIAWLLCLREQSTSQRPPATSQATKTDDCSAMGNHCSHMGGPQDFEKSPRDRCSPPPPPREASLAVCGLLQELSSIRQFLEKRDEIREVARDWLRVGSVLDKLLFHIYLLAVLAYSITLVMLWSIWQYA

[18] = target: Glutamate receptor ionotropic, NMDA 1 (Rattus norvegicus) (UniProt P35439); conditions: Compound concentration 10.0 uM
[19] = target: Androgen receptor (Rattus norvegicus) (UniProt P15207); conditions: Compound concentration 10.0 uM
Chain of Androgen receptor (Rattus norvegicus) (P15207 whole entry S389L): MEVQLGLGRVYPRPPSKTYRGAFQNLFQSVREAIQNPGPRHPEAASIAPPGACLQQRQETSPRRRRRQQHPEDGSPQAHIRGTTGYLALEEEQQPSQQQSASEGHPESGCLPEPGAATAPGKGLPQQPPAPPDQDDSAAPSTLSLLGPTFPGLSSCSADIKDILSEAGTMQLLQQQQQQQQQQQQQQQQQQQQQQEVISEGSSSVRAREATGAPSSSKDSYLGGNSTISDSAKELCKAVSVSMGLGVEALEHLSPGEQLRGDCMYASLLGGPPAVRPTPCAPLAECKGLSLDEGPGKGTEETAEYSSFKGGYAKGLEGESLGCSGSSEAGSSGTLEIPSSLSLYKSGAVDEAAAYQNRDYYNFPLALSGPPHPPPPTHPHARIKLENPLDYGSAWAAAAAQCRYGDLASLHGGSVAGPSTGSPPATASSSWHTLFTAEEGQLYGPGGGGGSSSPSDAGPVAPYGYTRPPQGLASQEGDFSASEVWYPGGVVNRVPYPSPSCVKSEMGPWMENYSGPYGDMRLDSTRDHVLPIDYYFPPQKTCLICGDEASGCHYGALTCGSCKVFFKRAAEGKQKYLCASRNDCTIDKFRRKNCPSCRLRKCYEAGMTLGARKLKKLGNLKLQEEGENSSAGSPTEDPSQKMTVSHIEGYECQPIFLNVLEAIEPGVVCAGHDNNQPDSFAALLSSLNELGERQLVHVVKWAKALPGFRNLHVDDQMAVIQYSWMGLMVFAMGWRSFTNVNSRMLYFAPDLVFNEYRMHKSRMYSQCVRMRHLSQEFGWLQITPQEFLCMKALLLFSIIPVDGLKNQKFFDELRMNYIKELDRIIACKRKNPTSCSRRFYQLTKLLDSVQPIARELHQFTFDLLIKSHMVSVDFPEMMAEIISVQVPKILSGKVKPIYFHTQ

[20] = target: 5-hydroxytryptamine receptor 4 (Cavia porcellus) (UniProt O70528); conditions: Compound concentration 10.0 uM
[21] = target: Angiotensin-converting enzyme (Oryctolagus cuniculus) (UniProt P12822); conditions: Compound concentration 10.0 uM
[22] = target: Potassium voltage-gated channel subfamily A member 1 (Rattus norvegicus) (UniProt P10499); conditions: Compound concentration 10.0 uM
[23] = target: Histamine H2 receptor (Homo sapiens) (UniProt P25021); conditions: Compound concentration 10.0 uM
[24] = target: Leukotriene C4 synthase (Cavia porcellus) (UniProt A6XA80); conditions: Compound concentration 10.0 uM
[25] = target: D(2) dopamine receptor (Homo sapiens) (UniProt P14416); conditions: Compound concentration 10.0 uM
Chain of D(2) dopamine receptor (Homo sapiens) (P14416 whole entry): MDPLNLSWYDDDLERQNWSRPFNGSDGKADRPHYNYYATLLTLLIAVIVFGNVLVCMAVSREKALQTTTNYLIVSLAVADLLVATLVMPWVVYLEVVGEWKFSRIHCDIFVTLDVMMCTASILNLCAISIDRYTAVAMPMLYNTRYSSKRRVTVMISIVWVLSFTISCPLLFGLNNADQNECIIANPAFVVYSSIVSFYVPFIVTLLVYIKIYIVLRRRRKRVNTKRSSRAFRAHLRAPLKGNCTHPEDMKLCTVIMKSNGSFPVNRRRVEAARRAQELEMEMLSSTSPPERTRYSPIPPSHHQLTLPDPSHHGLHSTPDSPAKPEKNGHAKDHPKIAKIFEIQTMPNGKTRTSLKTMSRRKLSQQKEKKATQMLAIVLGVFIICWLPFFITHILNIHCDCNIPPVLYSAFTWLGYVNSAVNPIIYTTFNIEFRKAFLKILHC

[26] = target: Gamma-aminobutyric acid receptor subunit beta-1 (Homo sapiens) (UniProt P18505); conditions: Rattus norvegicus; Compound concentration 10.0 uM
Chain of Gamma-aminobutyric acid receptor subunit beta-1 (Homo sapiens) (P18505 whole entry): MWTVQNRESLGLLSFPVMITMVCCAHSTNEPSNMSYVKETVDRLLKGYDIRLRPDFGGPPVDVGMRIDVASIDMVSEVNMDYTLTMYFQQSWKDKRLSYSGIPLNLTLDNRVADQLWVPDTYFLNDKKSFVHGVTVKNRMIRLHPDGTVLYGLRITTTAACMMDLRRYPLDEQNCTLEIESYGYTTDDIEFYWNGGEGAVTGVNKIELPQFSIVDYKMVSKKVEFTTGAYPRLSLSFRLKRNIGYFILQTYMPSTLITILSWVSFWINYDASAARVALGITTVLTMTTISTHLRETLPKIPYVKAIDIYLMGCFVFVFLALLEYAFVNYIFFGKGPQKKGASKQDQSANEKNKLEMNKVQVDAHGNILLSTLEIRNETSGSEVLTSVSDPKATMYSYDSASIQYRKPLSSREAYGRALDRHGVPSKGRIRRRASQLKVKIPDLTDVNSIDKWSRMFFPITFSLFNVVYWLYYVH

[27] = target: Serotonin 2 (5-HT2) receptor (Rattus norvegicus) (UniProt P30994+P08909+P14842); conditions: Compound concentration 10.0 uM
[28] = target: Sodium-dependent noradrenaline transporter (Homo sapiens) (UniProt P23975); conditions: Compound concentration 10.0 uM
[29] = target: Neutrophil elastase (Homo sapiens) (UniProt P08246); conditions: Compound concentration 10.0 uM
[30] = target: Sigma receptor (Homo sapiens) (UniProt Q99720+Q5BJF2); conditions: Cavia porcellus; Compound concentration 10.0 uM
Chain of Sigma receptor (Homo sapiens) (Q5BJF2 whole entry, looked up): as the sequence (Q5BJF2 whole entry) above
Chain of Sigma receptor (Homo sapiens) (Q99720 whole entry, looked up): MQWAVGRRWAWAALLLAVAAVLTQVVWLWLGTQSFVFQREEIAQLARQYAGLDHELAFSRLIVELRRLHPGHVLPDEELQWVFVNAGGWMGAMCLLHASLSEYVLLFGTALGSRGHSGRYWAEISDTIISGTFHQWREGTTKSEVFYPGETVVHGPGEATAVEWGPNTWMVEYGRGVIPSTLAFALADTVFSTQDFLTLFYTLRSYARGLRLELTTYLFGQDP

[31] = target: Muscarinic acetylcholine receptor M3 (Homo sapiens) (UniProt P20309); conditions: Compound concentration 10.0 uM
[32] = target: D(1A) dopamine receptor (Homo sapiens) (UniProt P21728); conditions: Compound concentration 10.0 uM
[33] = target: D(2) dopamine receptor (Homo sapiens) (UniProt P14416); conditions: Compound concentration 10.0 uM; remark: listed apart in the source

Chain of Sodium-dependent dopamine transporter (Homo sapiens) (Q01959 whole entry): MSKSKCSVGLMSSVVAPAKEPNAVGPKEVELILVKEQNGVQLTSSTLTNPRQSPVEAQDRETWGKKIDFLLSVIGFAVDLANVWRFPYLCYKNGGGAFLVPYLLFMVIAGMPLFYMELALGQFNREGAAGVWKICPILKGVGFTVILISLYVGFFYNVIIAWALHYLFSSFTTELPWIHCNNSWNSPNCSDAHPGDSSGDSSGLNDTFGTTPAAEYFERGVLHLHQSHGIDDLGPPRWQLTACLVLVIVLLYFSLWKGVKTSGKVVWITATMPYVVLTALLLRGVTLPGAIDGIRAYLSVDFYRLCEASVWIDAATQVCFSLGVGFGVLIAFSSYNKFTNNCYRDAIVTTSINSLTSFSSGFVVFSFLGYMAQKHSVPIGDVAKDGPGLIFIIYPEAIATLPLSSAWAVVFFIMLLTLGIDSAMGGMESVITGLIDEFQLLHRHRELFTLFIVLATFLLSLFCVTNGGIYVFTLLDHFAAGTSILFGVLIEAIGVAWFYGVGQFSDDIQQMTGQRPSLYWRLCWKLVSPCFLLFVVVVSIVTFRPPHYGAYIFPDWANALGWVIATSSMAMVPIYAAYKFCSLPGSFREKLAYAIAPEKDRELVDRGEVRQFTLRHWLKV

CCS(=O)(=O)c1cc2cc(C[C@](O)(CC(C)(C)c3ccc(F)cc3C(N)=O)C(F)(F)F)[nH]c2cn1
inactive: residual activity [1] 96% | residual activity [2] 106% | residual activity [3] 95% | residual activity [4] 99% | inhibition [5] -0.31% | residual activity [6] 85% | residual activity [7] 89% | residual activity [8] 104% | residual activity [9] 95% | residual activity [10] 85% | inhibition [11] 9.04% | residual activity [12] 104% | residual activity [13] 100% | residual activity [14] 75% | residual activity [15] 104% | residual activity [16] 106% | residual activity [17] 100% | residual activity [18] 103% | residual activity [19] 101% | residual activity [20] 89% | residual activity [21] 109% | residual activity [22] 87% | residual activity [23] 96% | residual activity [24] 104% | residual activity [25] 90% | residual activity [26] 75% | residual activity [27] 94% | residual activity [28] 102% | residual activity [29] 87% | residual activity [30] 86%

CCS(=O)(=O)c1cc2cc(C[C@@](O)(CC(C)(C)c3ccc(F)cc3C(N)=O)C(F)(F)F)[nH]c2cn1
inactive: inhibition [31] 1.25% | inhibition [32] 2.6% | inhibition [33] -8.41%

From ChEMBL document CHEMBL4507277
